Data from ChEMBL document CHEMBL3351973, “4(α-l-rhamnosyloxy)-benzyl isothiocyanate, a bioactive phytochemical that attenuates secondary damage in an experimental model of spinal cord injury” (Bioorg Med Chem, 2015).
Calls of active or inactive are those of the source.

Experiments:
Assay type in all cases: functional, organism-based
Design in all cases: dose 10 mg/kg
[1] = system: Mus musculus; test: Protection against injury in CD-1 mouse spinal cord injury model assessed as edema at 10 mg/kg, ip measured on day 7 by hematoxylin/eosin staining-based assay relative to control
[2] = system: Mus musculus; test: Antiapoptotic activity in CD-1 mouse spinal cord injury model assessed as reduction in caspase expression at 10 mg/kg, ip measured on day 7 by Western blotting analysis relative to control
[3] = system: Mus musculus; test: Antiapoptotic activity in CD-1 mouse spinal cord injury model assessed as increase in Bcl-2 level at 10 mg/kg, ip measured on day 7 by immunohistological analysis relative to control
[4] = system: Mus musculus; test: Protection against injury in CD-1 mouse spinal cord injury model assessed as infiltration of leukocyte at 10 mg/kg, ip measured on day 7 by hematoxylin/eosin staining-based assay relative to control
[5] = system: Mus musculus; test: Antiinflammatory activity in CD-1 mouse spinal cord injury model assessed as reduction in iNOS expression at 10 mg/kg, ip measured on day 7 by immunohistological analysis relative to control
[6] = system: Mus musculus; test: Neuroprotective activity in CD-1 mouse spinal cord injury model assessed as alteration of white matter at 10 mg/kg, ip measured on day 7 by hematoxylin/eosin staining-based assay relative to control
[7] = system: Mus musculus; test: Antiapoptotic activity in CD-1 mouse spinal cord injury model assessed as reduction in Bax level at 10 mg/kg, ip measured on day 7 by immunohistological analysis relative to control
[8] = system: Mus musculus; test: Antiinflammatory activity in CD-1 mouse spinal cord injury model assessed as IkappaB-alpha expression at 10 mg/kg, ip measured on day 7 by Western blotting analysis relative to control
[9] = system: Mus musculus; test: Antiinflammatory activity in CD-1 mouse spinal cord injury model assessed as reduction of NF-kappaB-p65 level at 10 mg/kg, ip measured on day 7 by immunohistological analysis relative to control
[10] = system: Mus musculus; test: Protection against injury in CD-1 mouse spinal cord injury model assessed as distribution of reticular fibre at 10 mg/kg, ip measured on day 7 by hematoxylin/eosin staining-based assay relative to control

Measured: Activity

C[C@@H]1O[C@@H](Oc2ccc(CN=C=S)cc2)[C@H](O)[C@H](O)[C@H]1O
active: [1] | [2] | [3] | [4] | [5] | [6] | [7] | [8] | [9] | [10]
